In ChEMBL document CHEMBL3120141, “Discovery of (1R,6S)-5-[4-(1-cyclobutyl-piperidin-4-yloxy)-phenyl]-3,4-diaza-bicyclo[4.1.0]hept-4-en-2-one (R,S-4a): histamine H(3) receptor inverse agonist demonstrating potent cognitive enhancing and wake promoting activity” (Bioorg Med Chem Lett, 2014):

Assays:
[1] = Metabolic stability in mouse liver microsomes; assay type: ADME, Microsome
Histamine H3 receptor [2] = target: Histamine H3 receptor (Rattus norvegicus, UniProt Q9QYN8); assay: Displacement of [3H]NAMH from rat histamine H3 receptor transfected in CHO cells; assay type: cell-based
Sequence of Histamine H3 receptor (Rattus norvegicus, UniProt Q9QYN8) (Q9QYN8 whole entry): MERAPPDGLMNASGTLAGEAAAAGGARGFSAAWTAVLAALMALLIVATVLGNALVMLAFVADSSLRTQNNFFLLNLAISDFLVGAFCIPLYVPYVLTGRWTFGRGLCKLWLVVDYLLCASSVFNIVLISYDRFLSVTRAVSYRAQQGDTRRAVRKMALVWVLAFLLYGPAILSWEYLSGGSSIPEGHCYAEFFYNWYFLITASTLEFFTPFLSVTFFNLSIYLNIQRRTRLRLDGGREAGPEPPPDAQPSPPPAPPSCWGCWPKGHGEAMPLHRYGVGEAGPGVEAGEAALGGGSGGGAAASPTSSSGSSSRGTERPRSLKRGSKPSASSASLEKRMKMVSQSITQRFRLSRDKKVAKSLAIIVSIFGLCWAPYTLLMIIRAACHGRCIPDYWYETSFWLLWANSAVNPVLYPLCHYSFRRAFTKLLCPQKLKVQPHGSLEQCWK

Homo sapiens [3] = species on record: Homo sapiens; assay: Selectivity ratio for human histamine H3 receptor over human histamine H4 receptor
Liver microsome [4] = assay: Metabolic stability in dog liver microsomes; assay type: ADME, Canis lupus familiaris
Homo sapiens [5] = species on record: Homo sapiens; assay: Selectivity ratio for human histamine H3 receptor over human histamine H2 receptor
Cytochrome P450 1A2 = target: T1, Cytochrome P450 1A2 (Homo sapiens, UniProt P05177); assay: Inhibition of CYP1A2 (unknown origin); assay type: ADME; conditions: human
T1 sequence (P05177 whole entry): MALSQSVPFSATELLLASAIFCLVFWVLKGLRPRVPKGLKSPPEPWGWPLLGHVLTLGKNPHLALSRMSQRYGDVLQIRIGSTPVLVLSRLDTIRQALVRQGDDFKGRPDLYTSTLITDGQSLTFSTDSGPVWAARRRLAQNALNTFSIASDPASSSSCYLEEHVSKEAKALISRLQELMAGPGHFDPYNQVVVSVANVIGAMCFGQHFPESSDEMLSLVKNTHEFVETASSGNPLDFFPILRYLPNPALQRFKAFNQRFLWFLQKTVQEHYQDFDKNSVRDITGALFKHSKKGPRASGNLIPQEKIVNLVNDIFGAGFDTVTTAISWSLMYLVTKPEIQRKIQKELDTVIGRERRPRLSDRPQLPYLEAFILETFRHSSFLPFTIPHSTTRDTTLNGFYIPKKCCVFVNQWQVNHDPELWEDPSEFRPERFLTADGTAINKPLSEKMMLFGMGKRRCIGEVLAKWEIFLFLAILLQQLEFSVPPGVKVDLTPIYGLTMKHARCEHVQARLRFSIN

Liver microsome [6] = assay: Metabolic stability in human liver microsomes; assay type: ADME
Histamine H3 receptor [7] = target: Histamine H3 receptor (Homo sapiens, UniProt Q9Y5N1); assay: Displacement of [3H]NAMH from human histamine H3 receptor transfected in CHO cells; assay type: cell-based
Sequence of Histamine H3 receptor (Homo sapiens, UniProt Q9Y5N1) (Q9Y5N1 whole entry): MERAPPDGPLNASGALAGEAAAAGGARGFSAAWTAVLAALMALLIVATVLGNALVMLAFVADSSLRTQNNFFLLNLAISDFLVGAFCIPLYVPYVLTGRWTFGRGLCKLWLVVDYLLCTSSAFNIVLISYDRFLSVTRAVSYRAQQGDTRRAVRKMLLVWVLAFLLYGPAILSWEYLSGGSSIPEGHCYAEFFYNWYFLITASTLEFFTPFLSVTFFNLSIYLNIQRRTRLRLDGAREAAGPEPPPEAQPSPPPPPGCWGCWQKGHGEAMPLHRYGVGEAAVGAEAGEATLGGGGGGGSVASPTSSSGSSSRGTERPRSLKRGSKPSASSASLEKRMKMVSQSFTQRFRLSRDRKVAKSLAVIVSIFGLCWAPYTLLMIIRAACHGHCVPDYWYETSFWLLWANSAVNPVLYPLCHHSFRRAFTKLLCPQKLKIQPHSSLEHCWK

Cytochrome P450 2C9 = Cytochrome P450 2C9 (Homo sapiens, UniProt P11712); assay: Inhibition of CYP2C9 (unknown origin); assay type: ADME; conditions: human
Sequence of Cytochrome P450 2C9 (P11712 whole entry): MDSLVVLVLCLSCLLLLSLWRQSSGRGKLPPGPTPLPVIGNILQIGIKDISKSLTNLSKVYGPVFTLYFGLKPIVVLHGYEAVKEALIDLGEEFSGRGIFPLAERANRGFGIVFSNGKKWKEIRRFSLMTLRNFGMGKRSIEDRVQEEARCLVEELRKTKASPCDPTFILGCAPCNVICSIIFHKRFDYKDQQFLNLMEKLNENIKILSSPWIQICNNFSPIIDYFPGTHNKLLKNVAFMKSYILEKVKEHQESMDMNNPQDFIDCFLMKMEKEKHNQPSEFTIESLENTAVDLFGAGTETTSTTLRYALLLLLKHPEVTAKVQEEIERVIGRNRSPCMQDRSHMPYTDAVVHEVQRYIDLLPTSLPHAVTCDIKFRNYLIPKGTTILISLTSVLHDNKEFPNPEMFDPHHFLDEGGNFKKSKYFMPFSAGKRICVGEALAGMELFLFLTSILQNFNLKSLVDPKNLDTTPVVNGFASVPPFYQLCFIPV

Cytochrome P450 2D6 = Cytochrome P450 2D6 (Homo sapiens, UniProt P10635); assay: Inhibition of CYP2D6 (unknown origin); assay type: ADME; conditions: human
Sequence of Cytochrome P450 2D6 (P10635 whole entry): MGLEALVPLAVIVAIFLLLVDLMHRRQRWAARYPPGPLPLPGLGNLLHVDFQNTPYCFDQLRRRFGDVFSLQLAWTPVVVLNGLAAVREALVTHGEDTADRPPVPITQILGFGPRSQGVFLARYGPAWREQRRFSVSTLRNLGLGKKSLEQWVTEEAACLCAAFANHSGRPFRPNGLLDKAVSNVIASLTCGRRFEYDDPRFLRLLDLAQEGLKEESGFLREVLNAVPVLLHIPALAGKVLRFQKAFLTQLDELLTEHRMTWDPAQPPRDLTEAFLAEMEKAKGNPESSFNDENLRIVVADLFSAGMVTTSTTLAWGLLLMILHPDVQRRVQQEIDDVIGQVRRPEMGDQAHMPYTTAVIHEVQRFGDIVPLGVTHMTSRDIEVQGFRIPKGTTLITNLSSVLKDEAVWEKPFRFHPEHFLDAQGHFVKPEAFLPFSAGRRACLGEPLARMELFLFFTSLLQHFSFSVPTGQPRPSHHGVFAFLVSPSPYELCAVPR

Cytochrome P450 2C19 = Cytochrome P450 2C19 (Homo sapiens, UniProt P33261); assay: Inhibition of CYP2C19 (unknown origin); assay type: ADME; conditions: human
Sequence of Cytochrome P450 2C19 (P33261 whole entry): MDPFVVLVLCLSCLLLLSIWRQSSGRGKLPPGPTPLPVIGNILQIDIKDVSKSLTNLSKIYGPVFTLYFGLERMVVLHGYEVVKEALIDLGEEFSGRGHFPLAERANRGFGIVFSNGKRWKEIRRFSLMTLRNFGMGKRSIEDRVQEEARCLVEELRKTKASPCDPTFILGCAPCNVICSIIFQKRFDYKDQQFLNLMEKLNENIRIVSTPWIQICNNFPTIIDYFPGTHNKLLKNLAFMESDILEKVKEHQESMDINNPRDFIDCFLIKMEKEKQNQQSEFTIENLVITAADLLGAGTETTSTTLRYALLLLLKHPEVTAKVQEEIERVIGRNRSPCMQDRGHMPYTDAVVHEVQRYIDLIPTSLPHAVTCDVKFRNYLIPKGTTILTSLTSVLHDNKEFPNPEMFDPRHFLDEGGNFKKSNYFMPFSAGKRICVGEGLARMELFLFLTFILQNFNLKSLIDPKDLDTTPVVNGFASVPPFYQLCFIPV

Liver microsome [8] = assay: Metabolic stability in rat liver microsomes; assay type: ADME
Homo sapiens [9] = species on record: Homo sapiens; assay: Selectivity ratio for human histamine H3 receptor over human histamine H1 receptor
Cytochrome P450 3A4 = Cytochrome P450 3A4 (Homo sapiens, UniProt P08684); assay: Inhibition of CYP3A4 (unknown origin); assay type: ADME; conditions: human
Sequence of Cytochrome P450 3A4 (P08684 whole entry): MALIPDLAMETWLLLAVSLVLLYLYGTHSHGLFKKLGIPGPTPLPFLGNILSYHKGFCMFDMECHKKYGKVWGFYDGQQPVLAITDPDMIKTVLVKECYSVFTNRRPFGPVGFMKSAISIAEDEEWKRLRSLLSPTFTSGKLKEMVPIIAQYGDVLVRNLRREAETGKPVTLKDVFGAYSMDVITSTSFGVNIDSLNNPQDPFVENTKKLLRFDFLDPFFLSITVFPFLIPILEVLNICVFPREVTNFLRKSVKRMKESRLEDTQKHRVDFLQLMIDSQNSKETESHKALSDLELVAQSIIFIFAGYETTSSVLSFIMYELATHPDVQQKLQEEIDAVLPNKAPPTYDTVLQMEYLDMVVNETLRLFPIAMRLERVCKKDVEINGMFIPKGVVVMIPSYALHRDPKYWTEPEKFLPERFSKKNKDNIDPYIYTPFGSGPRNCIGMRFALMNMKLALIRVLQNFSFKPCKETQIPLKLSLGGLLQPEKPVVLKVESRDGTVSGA

Stability [1]	Ki (Histamine H3 receptor [2])	Selectivity ratio (Homo sapiens [3])	Stability (Liver microsome [4])	Selectivity ratio (Homo sapiens [5])	inhibition (INH) (Cytochrome P450 1A2)	Stability (Liver microsome [6])	Ki (Histamine H3 receptor [7])	inhibition (INH) (Cytochrome P450 2C9)	inhibition (INH) (Cytochrome P450 2D6)	inhibition (INH) (Cytochrome P450 2C19)	Stability (Liver microsome [8])	Selectivity ratio (Homo sapiens [9])	inhibition (INH) (Cytochrome P450 3A4)	Compound
Stable	51 nM	> 1000	Stable	> 1000	Not Active	Stable	9.1 nM	Not Active	Not Active	Not Active	Stable	> 1000	Not Active	CC(C)N1CCC(Oc2ccc(C3=NNC(=O)C4CC34)cc2)CC1 (racemic)
	5.6 nM	> 1000		> 1000			6.9 nM					> 1000		CC(C)N1N=C(c2ccc(OC3CCN(C4CCC4)CC3)cc2)C2CC2C1=O (racemic)
